Measurements taken from US20150147792A1, “Betaine Enhancement of Fermentation to make C4 Diacids” (ARCHER DANIELS MIDLAND COMPANY, priority 2012, published 2015).

Tests used:
[1] = system: Actinobacillus Succinogenes; details: osmoprotectant added to media; cited from earlier work
[2] = system: A. succinogenes strain FZ45 830.60; test: Production fermentation of dextrose to succinic acid, strain FZ45 830.60; type: cell-based, Actinobacillus succinogenes
Source text: In a medium containing 90-155 g/l of dextrose as the primary carbon source supplemented with 15 g/liter of a commercial yeast extract (TASTONE™ 900AG from Sensient, Milwaukee, Wis.) the 830.60 strain was capable of producing a titer of 100 g/l of succinic acid with a 85-90% yield from dextrose at a productivity rate of 2 To 3 g/liter/hour.
For the present work, a variety of media alterations were tried in an attempt to substitute the commercial yeast extract with corn steep liquor and/or with a locally produced homogenized yeast extract made by homogenizing aerobically grown yeast produced incident to ethanol fermentation, and/or by supplementing the media with betaine and/or glutamate. To distinguish commercial yeast extract, which is available from distributors a dry powder, from a homogenate of yeast cells made locally by rupturing yeast cells in liquid suspension, the latter is referred to herein as “local yeast homogenate”
Corn steep liquor (CSL) was used as the target nutrient source to substitute for yeast extract. CSL is a by-product of wet corn milling obtained by steeping corn grain in water containing a small amount of a sulfide compound for several hours. CSL is rich in low molecular weight organic acids, some carbohydrates, vitamins and minerals that are released from the corn grain. The amount of CSL and local yeast homogenate is shown in terms of dry solids basis (dsb) meaning the amount of material added excluding water weight, per liter of fermentation. Glutamate was added in the form of monosodium glutamate (MSG) and betaine was added in the form of the anhydrous base in the amounts shown. Dextrose was present at between 90 and 125 g/l in all starting media.
Local yeast homogenate was obtained by aerobically growing an ethanol producing strain of the bakers yeast S. cerevesiae on dextrose until the culture reached stationary phase, recovering the yeast cells as paste, and homogenizing the yeast paste with an APV Gaulin French press type homogenizer at a pressures of 12,500 psi or greater. The glutamic acid was added in the form of monosodium glutamate, and the betaine was betaine base anhydrous from MP Biomedicals
Inoculum Medium A. succinogenes strain FZ45830,60, provided by MBI International, was grown in two 100 ml serum bottles each containing 50 ml of inoculum medium incubated at 38° C. for 15-24 hours by shaking in a rotary incubator at 180 rpm, which was then used as 5% vol/vol inoculum for final fermenter volume of 2.0 liters in a 7.5 lite fermenter. The inoculum medium was prepared in two steps. In the first step, 4 g of MgCO3 was weighed into a 100 ml Wheaton serum bottle containing 30 ml of distilled water, which was then sealed, autoclaved and cooled. In the second step the remaining ingredients, which were prepared as supplemental sterilized solutions, were added to the serum bottle with a sterile syringe. The supplemental solutions and formulation of the inoculum media are shown below.
The serum bottle was inoculated with 1.5 ml of an overnight culture grown in the same medium. The serum bottle was flushed and overlaid with CO2 before incubation
Seed Medium A New Brunswick EPPENDORF BiOFLO 310-7.5 liter fermenter was inoculated with the 2 serum bottles containing the inoculation culture for initial production fermentation studies or as a seed culture for larger scale fermentations. The operating conditions are listed below:
The seed medium contained 4 g/l CSL dsb, 14 g/l TASTONE 900AG yeast extract, 0.0002 g/l biotin, 10 ml/l 0.5M sodium phosphate buffer and 100 g/l dextrose. The pH was adjusted with a 35% Mg(OH)2 slurry. The seed fermenter was inoculated at 5% v/v from the incubated serum bottle culture and was harvested in the early log phase (e.g., an increase in OD of 3 to 4 units) other measure of early log phase?) Two hundred ml of the seed culture was used to inoculate 4 liters of media in a second 7.5 liter production fermenter. […]

## O=C(O)[C@@H]1CCCN1 [proline]
[1]
  increase in productivity: 22%

## C[N+](C)(C)CC(=O)O [betaine, N,N,N-trimethylglycine]
[2]; betaine 0.1 to 1 g/liter
  succinic acid produced: 70 to 115 g/L
  succinic acid produced, concentration: 590 to 980 mM
[2]; betaine 1 g/liter, Table 1
  productivity rate: 2.4-2.9 g per liter per hour
  titer: 90 to 104 g/L
  yield from glucose: about 85%

## O=C(O)CCCC[C@@H]1SC[C@@H]2NC(=O)N[C@@H]21 [biotin]
[2]; betaine provided as sole non-nutrative supplement
  effect on yield from glucose: did not statistically increase the yield from glucose
